These results are taken from paper PMC2910072 (Nucleic Acids Research, 2010).

The test has as its target E. coli RNA polymerase β subunit (wild-type) (Escherichia coli, UniProt P0A8V2). Put plainly: coupled cell-free synthesis of RNAP holoenzyme with firefly luciferase reporter. The test is classed as biochemical. For orientation: Reporter assays use an easily measured gene product as a stand-in for the process of interest.

The structures appear in SMILES notation.

Chain of E. coli RNA polymerase β subunit (wild-type) (P0A8V2 whole entry): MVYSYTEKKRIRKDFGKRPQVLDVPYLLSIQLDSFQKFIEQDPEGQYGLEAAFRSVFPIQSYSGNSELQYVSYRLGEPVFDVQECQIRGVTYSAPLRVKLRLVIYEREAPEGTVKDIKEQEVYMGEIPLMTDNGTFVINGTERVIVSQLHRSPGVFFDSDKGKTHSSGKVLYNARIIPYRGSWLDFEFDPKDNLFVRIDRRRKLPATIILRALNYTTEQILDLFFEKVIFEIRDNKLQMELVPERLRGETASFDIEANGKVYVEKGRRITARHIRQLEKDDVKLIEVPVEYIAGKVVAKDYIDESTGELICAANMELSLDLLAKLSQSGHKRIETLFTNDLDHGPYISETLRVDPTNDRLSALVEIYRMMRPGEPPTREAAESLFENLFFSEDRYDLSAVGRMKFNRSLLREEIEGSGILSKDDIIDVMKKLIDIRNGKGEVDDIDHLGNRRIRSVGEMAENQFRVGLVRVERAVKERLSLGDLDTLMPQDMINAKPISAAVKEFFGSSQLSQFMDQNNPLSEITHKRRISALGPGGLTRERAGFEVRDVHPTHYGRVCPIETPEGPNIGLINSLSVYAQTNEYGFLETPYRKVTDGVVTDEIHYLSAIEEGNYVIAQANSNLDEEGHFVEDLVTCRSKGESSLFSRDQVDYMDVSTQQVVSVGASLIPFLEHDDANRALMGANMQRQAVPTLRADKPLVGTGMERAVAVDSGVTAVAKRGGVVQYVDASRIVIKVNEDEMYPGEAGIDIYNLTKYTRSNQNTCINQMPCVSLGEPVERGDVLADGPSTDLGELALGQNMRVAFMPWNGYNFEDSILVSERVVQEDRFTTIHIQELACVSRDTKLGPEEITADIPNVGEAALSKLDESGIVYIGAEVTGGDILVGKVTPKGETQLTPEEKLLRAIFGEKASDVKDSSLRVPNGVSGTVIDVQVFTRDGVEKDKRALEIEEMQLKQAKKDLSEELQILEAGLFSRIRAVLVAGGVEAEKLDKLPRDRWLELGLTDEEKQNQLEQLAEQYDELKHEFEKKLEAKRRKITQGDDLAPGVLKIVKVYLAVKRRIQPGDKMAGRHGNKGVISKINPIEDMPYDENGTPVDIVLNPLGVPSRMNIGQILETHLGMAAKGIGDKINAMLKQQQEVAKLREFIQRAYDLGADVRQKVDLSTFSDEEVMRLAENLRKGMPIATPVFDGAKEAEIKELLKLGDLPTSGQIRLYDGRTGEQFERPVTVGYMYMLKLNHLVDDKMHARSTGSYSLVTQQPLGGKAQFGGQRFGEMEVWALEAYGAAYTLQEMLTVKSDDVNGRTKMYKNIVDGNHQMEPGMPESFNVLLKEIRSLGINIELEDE
Chain of E. coli RNA polymerase β subunit (wild-type) (P0A7Z4 whole entry partner): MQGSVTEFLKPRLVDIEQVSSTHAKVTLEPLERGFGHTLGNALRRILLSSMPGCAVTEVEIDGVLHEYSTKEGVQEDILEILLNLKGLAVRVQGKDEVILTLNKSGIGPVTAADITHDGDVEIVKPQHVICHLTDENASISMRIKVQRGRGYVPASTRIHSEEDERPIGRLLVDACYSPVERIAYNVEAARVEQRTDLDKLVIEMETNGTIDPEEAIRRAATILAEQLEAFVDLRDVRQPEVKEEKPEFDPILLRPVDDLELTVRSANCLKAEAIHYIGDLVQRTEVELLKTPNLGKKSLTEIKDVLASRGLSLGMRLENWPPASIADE
Chain of E. coli RNA polymerase β subunit (wild-type) (P0A8T7 whole entry partner): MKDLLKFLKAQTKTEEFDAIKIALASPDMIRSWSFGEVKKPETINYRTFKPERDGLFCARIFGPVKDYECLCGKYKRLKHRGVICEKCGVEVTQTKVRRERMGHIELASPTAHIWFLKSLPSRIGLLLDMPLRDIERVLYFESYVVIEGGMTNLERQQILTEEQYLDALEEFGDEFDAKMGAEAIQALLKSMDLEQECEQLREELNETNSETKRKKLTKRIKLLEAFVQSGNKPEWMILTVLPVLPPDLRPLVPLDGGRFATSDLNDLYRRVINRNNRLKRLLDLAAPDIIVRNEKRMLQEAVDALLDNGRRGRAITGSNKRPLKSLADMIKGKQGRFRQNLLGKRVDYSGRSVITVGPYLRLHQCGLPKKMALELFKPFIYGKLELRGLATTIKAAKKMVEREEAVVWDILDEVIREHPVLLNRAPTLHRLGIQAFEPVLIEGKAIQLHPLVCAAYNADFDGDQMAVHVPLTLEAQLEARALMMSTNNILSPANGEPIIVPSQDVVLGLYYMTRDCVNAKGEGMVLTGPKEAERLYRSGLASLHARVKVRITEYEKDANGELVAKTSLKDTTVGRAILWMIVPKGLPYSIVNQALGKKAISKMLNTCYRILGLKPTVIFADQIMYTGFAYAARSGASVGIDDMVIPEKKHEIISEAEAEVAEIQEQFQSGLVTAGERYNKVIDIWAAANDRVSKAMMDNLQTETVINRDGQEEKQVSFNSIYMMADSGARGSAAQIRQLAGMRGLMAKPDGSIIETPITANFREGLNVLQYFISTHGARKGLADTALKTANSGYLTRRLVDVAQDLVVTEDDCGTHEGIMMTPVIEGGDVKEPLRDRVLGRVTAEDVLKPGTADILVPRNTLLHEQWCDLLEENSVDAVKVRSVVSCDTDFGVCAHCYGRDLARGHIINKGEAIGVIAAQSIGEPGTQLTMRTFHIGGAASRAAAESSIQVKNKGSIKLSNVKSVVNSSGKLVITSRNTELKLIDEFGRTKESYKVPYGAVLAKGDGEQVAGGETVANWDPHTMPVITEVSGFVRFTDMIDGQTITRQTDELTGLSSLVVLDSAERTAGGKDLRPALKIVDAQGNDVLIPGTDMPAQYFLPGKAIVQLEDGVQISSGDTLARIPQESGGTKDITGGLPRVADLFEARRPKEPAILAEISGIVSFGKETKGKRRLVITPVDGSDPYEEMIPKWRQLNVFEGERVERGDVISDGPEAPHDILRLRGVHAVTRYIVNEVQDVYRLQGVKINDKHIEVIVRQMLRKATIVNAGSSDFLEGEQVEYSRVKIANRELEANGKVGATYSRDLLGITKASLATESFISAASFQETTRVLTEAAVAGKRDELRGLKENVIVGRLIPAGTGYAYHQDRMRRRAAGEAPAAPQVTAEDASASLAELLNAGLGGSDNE
Chain of E. coli RNA polymerase β subunit (wild-type) (P0A800 2-91 partner): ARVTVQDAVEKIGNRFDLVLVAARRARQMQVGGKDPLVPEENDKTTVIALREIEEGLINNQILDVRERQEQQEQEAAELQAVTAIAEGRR
Chain of E. coli RNA polymerase β subunit (wild-type) (P0AGB3 whole entry partner): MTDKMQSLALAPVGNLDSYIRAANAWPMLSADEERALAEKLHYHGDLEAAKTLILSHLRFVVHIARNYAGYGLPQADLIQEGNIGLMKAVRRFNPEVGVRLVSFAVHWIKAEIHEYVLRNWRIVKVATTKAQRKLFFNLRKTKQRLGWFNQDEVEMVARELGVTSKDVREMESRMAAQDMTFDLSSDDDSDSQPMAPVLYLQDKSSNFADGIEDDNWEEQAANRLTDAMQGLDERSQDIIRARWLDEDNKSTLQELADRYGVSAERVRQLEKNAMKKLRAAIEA

Usually IC50 stands for the midpoint of a concentration-inhibition curve. The low end stands for greater potency, the high end for weaker potency. In the case of `CO[C@H]1/C=C/O[C@@]2(C)Oc3c(C)c(O)c4c(O)c(c(/C=N/N5CCN(C)CC5)c(O)c4c3C2=O)NC(=O)/C(C)=C\C=C\[C@H](C)[C@H](O)[C@@H](C)[C@@H](O)[C@@H](C)[C@H](OC(C)=O)[C@@H]1C` [rifampicin], the IC50 is ~200 nM.
